# Key:
# [1] = test system: human rtTET-expressing ESCs transfected with GFH, H1AM and TBX3; assay: Hepatic programming efficiency by albumin (ALB) flow analysis; assay type: cell-based; settings: for % ALB-expressing cells (hepatic programming efficiency): 0.5 μM, alone, added along with doxycycline day 1 to day 7 post-plating, FIG. 6
# From the text: Genes that are either implicated in hepatic differentiation during normal mammalian development or enriched in adult hepatocytes were cloned into the PiggyBac vector (FIG. 3) under the control of the […] promoter (Table 1). To find transcription factors that are able to directly impose mature hepatic fate upon human ESCs, various combinations of transgene-expressing PiggyBac vectors along with the hPBase-expressing vector were introduced into the human ESCs having constitutive expression of rtTET through nucleofection (Minis Ingenio Electroporation solution: cat#MIR50114; program: Amaxa B-016). Nucleofected human ESCs were cultured on matrigel in mTeSR1 (Stem Cell Technologies). Following geneticin (100 μg/ml) selection for stable genomic transgene integration (cells were passaged at lease once prior to differentiation), human ESCs were individualized by accutase treatment and plated to matrigel-coated 12-well plates. […] Where appropriate, small molecules, such as MEK inhibitor PD0325901, TGFβ kinase/activin receptor like kinase (ALK5) inhibitor A 83-01, and an analogue of the natural signaling molecule cyclic AMP 8-Bromoadenosine 3',5'-cyclic monophosphate (8-Br-cAMP), were added during hepatic programming. To determine the effect of MEK inhibitor PD0325901 (P) and TGFβ kinase/activin receptor like kinase (ALK5) inhibitor A 83-01 (A) on hepatic programming efficiency, human rtTET-expressing ESCs transfected with […] and TBX3 were plated on matrigel-coated 12-well plates at about 0.2×10^6 cells/well in mTeSR supplemented with 10 μM HA100 on day 0. […] Cells were collected for albumin (ALB) flow analysis on day 13 post-plating. […] Transfected cells were plated on matrigel-coated 12-well plates at about 0.2×10^6 cells/well in mTeSR supplemented with 10 μM HA100 on day 0. […] Cells were collected for ALB flow analysis on day 12 post-plating. […] With transgene expression, hepatocyte-like cells with polygonal shapes, distinct nuclei, and tight cell-cell contacts were readily observed. To determine the effect of cyclic AMP analog 8-Br-cAMP on hepatic programming, human rtTET-expressing ESCs transfected with […] and TBX3 were plated on matrigel-coated 12-well plates at about 0.2×10^6 cells/well in mTeSR supplemented with 10 μM HA100 on day 0. […] Cells were collected for ALB flow analysis on day 13 post-plating.
# [2] = test system: MEK; settings: Bain et al., 2007; cited from earlier work
compound,measurement,setting,value
"Nc1ncnc2c1nc(Br)n2[C@@H]1O[C@@H]2COP(=O)(O)O[C@H]2[C@H]1O [8-Br-cAMP, 8-Bromoadenosine 3′,5′-cyclic monophosphate]",saturation concentration for improved hepatic programming,"[1]; added from day 7 after removal of doxycycline, P and A, ALB flow analysis day 13, FIG. 8",~200 µM
same,hepatic programming (ALB flow analysis),"[1]; different concentrations added from day 7 after removal of doxycycline, P and A, ALB flow analysis day 13, FIG. 8",significantly improved
Cc1cccc(-c2nn(C(=S)Nc3ccccc3)cc2-c2ccnc3ccccc23)n1 [A 83-01],% ALB-expressing cells (hepatic programming efficiency),[1]; ALB flow analysis day 13,significantly improves
C[C@H]1c2cccc(O)c2C(=O)C2=C(O)[C@]3(O)C(=O)C(C(N)=O)=C(O)[C@@H](N(C)C)[C@@H]3[C@@H](O)[C@@H]21 [Doxycycline],optimal time window for transgene induction for hepatic programming,"[1]; doxycycline 1 μg/ml with P and A for 0, 2, 4, 6, 8 or 10 days, ALB flow analysis day 12, FIG. 7A",4 days
O=C(NOCC1CC1)c1ccc(F)c(F)c1Nc1ccc(I)cc1Cl [PD184352],specificity and potency compared to other known MEK inhibitors,[2],high degree of specificity and potency
O=C(NOC[C@H](O)CO)c1ccc(F)c(F)c1Nc1ccc(I)cc1F [PD0325901],% ALB-expressing cells (hepatic programming efficiency),[1]; ALB flow analysis day 13,significantly improves

# Reference: patent US20140242595A1, “HEPATOCYTE PRODUCTION VIA FORWARD PROGRAMMING BY COMBINED GENETIC AND CHEMICAL ENGINEERING” (Cellular Dynamics International, Inc., priority 2013, published 2014)
